Data: patent publication US11634452B2, “Compounds for treating neurodegenerative disorders” (ETHNODYNE, priority 2017, dated 2023)

Assays:
Format in all cases: cell-based
[1] = system: Human MRC-5 cell line derived from normal lung tissue; experiment: Cytotoxicity test, cell growth inhibition by MTS assay; settings: MRC-5, 72 h incubation, 8 concentrations
Protocol: (§1) Human MRC-5 cell line derived from normal lung tissue and human HCT-116 colorectal carcinoma were obtained from the American Type Culture Collection (ATCC, Rockville, Md.). Primary Human Umbilical Vein Endothelial Cells (HUVEC) isolated from the vein of the umbilical cord were obtained from Promocell (Germany). Cell lines were cultured according to the supplier's instructions. Human HCT-116 cells were grown in Gibco McCoy's 5A supplemented with 10% fetal calf serum (FCS) and 1% glutamine. Human MRC-5 cells were grown in DMEM supplemented with 10% fetal calf serum (FCS) and 1% glutamine. HUVECs were grown in Endothelial Cell Growth Medium 2 which is low-serum (2% V/V) media optimized for the cultivation of endothelial cells from large blood vessels.
(§2) Cells were counted using a Vi-cell XR (Beckman Coulter) and their viability assessed by 0.25% trypan blue dye exclusion. They were tested for the presence of mycoplasma before experiments with the Mycoplasma PCR Detection Kit (Applied Biological Materials Inc., Canada) in accordance with the manufacturer instructions and only mycoplasma-free cells were used for further investigations.
(§3) Cell lines were maintained at 37° C. in a humidified atmosphere containing 5% CO2. Cell growth inhibition was determined by an MTS assay according to the manufacturer's instructions (Promega, Madison, Wis., USA). […] After 24 h of culture, the cells were treated with the compound CR777 of example 1 at 8 different final concentrations. Each concentration was obtained from serial dilutions in culture medium starting from the stock solution. Control cells were treated with the vehicle. Experiments were performed in triplicate.
(§4) After 72 h of incubation, 20 μL of CellTiter 96® AQueous One Solution Reagent was added for 2 h before recording absorbance at 490 nm with a spectrophotometric plate reader. The dose-response curves were plotted with Graph Prism software and the IC50 values were calculated using the Graph Prism software from polynomial curves (four or five-parameter logistic equations).

[2] = system: Primary Human Umbilical Vein Endothelial Cells (HUVEC); experiment: as above; settings: 72 h incubation, 8 concentrations
Protocol: as §1, §2, §3, §4

[3] = system: human HCT-116 colorectal carcinoma; experiment: as above; settings: HCT-116, 72 h incubation, 8 concentrations
Protocol: as §1, §2, §3, §4

[4] = system: primary rat cortical neurons injured with glutamate; experiment: Effect in rat primary cortical neurons after glutamate injury
Protocol: A., et al., 1999. J Neurosci 19: 2455-2463 and Callizot.
The medium was changed every 2 days. The cortical neurons were intoxicated with glutamate solution.
The following conditions were assessed: • Control (culture medium) • + glutamate (40 μM, 20 min) • + glutamate (40 μM, 20 min)+CR777 (at each concentration)

[5] = system: primary rat motor neurons injured with glutamate; experiment: Primary motor neuron culture survival after glutamate exposure (in vitro ALS model); settings: CR777 between 1 nM and 10 nM, added 1 h before glutamate (5 μM, 20 min, then 48 h)
Protocol: The aim of this study was to study the effect of CR777 on primary motor neuron culture from rat spinal cord (SC) injured by glutamate exposure (a well validated in vitro ALS model and model of motor neuron diseases).
Rat SC motor neurons were cultured as described by Martinou et al., Neuron. 1992 April; 8(4):737-44 and Wang et al., Hum Mol Genet. 2013 Dec. 1; 22(23):4706-19. Briefly, pregnant female rats (Wistar, Janvier labs) of 14 days gestation were killed by cervical dislocation. […] Cells were then centrifuged at 180 g for 10 min at +4° C. on a layer of BSA (3.5%) in L15 medium. […] The medium was changed every day.
The following conditions were assessed: • Control • + glutamate (5 μM 20 mn then 48 h) • + glutamate (5 μM 20 mn then 48 h)+CR777 1 pmol/L • + glutamate (5 μM 20 mn then 48 h)+CR777 10 pmol/L • + glutamate (5 μM 20 mn then 48 h)+CR777 100 pmol/L • + glutamate (5 μM 20 mn then 48 h)+CR777 1 nmol/L • + glutamate (5 μM 20 mn then 48 h)+CR777 10 nmol/L • + glutamate (5 μM 20 mn then 48 h)+CR777 100 nmol/L • + glutamate (5 μM 20 mn then 48 h)+CR777 1 μmol/L • + glutamate (5 μM 20 mn then 48 h)+CR777 10 μmol/L […]
For each condition, 6 wells were assessed, 30 pictures per well were taken using ImageXpress (Molecular Devices) with 20× magnification, to assess motor neuron survival (MAP-2). […]

CC1=C(CO)C(=O)O[C@@H]([C@@H](C)[C@H]2CCC3C4C[C@H](SC[C@H](NC(=O)CC[C@@H](N)C(=O)O)C(=O)NCC(=O)O)[C@]5(O)[C@@H](O)C=CC(=O)[C@]5(C)C4CC[C@@]32C)C1 (stereo partly shown) [CR777]
toxicity (cell growth inhibition, MTS) [1]: does not show any toxicity | toxicity (cell growth inhibition, MTS) [2]: does not show any toxicity | toxicity (cell growth inhibition, MTS) [3]: does not show any toxicity | neurite network ([4]; CR777 1 pmol/L to 10 μmol/L overall, glutamate 40 μM, 20 min): moderate neuroprotective effect | neuron survival ([4]; CR777 100 pM, added 1 h before glutamate (40 μM, 20 min) and let for 48 h): significantly protected neurons from death | neuron survival ([4]; CR777 from 1 nM up to 1 μM, glutamate 40 μM, 20 min): full protection | concentration at which the maximal effect on neurite network was observed ([4]; glutamate 40 μM, 20 min): 1 µM | concentration at which the maximal effect on neuron survival was reached ([4]; glutamate 40 μM, 20 min, dose dependent): 10 nM | neurite network ([4]; only the doses of 10, 100 pM and 1 μM, glutamate 40 μM, 20 min): significantly protected the neurite network | motor neuron survival [5]: moderate and significant protective effect
